According to patent US10987359B2, “Oxadiazepinone derivatives and methods of treating hepatitis B infections” (priority 2016, dated 2021):

test system: HBV; assay: HBV replication inhibition assay (BDNA assay) in HepG2.2.15 cells; assay type: cell-based; conditions: Hepatitis B virus, HepG2.2.15, HBV replication assay (BDNA assay), HepG2.2.15 cells; read-out: DNA EC50
In short: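 HepG2.2.15 cells with stably integrated HBV were treated with serially diluted compounds at 0.5% DMSO for 6 days, with medium and compound refreshed at day 3. Encapsidated HBV DNA from DNase-treated supernatant was quantified by branched DNA assay. EC50 came from % inhibition versus DMSO, fitted non-linearly.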

Row | Structure (SMILES) | EC50
1 | C[C@@H]1Cc2nn3c(c2CN1C(=O)Nc1ccc(F)c(Br)c1)C(=O)N(C)N=C(CO)C3 [Compound 234, (R)-N-(3-bromo-4-fluorophenyl)-4-(hydroxymethyl)-2,9-dimethyl-1-oxo-1,2,5,8,9,11-hexahydro-10H-pyrido[4′,3′:3,4]pyrazolo[5,1-d][1,2,5]triazepine-10-carboxamide] | 1 to 100 nM
2 | C[C@@H]1Cc2nn3c(c2CN1C(=O)Nc1ccc(F)c(Cl)c1)C(=O)N(C)N=C(CO)C3 [Compound 235, (R)-N-(3-chloro-4-fluorophenyl)-4-(hydroxymethyl)-2,9-dimethyl-1-oxo-1,2,5,8,9,11-hexahydro-10H-pyrido[4′,3′:3,4]pyrazolo[5,1-d][1,2,5]triazepine-10-carboxamide] | 1 to 100 nM
3 | C[C@@H]1Cc2nn3c(c2CN1C(=O)Nc1ccc(F)c(Br)c1)C(=O)N(C)N=C(COCC(F)F)C3 [Compound 236, (R)-N-(3-bromo-4-fluorophenyl)-4-((2,2-difluoroethoxy)methyl)-2,9-dimethyl-1-oxo-1,2,5,8,9,11-hexahydro-10H-pyrido[4′,3′:3,4]pyrazolo[5,1-d][1,2,5]triazepine-10-carboxamide] | 1 to 100 nM
4 | C[C@@H]1Cc2nn3c(c2CN1C(=O)Nc1ccc(F)c(C#N)c1)C(=O)N(C)N=C(COCC(F)F)C3 [Compound 237, (R)-N-(3-cyano-4-fluorophenyl)-4-((2,2-difluoroethoxy)methyl)-2,9-dimethyl-1-oxo-1,2,5,8,9,11-hexahydro-10H-pyrido[4′,3′:3,4]pyrazolo[5,1-d][1,2,5]triazepine-10-carboxamide] | 1 to 100 nM
5 | C[C@@H]1Cc2nn3c(c2CN1C(=O)Nc1ccc(F)c(C(F)(F)F)c1)C(=O)N(C)N=C(COCC(F)F)C3 [Compound 238, (R)-4-((2,2-difluoroethoxy)methyl)-N-(4-fluoro-3-(trifluoromethyl)phenyl)-2,9-dimethyl-1-oxo-1,2,5,8,9,11-hexahydro-10H-pyrido[4′,3′:3,4]pyrazolo[5,1-d][1,2,5]triazepine-10-carboxamide] | 100 to 500 nM
